“Also recorded” adds a separate entry of the source.

One test concerns the target T1, GIRK1/2 (UniProt P48542+P48549).
T1 sequence (P48549 1-501): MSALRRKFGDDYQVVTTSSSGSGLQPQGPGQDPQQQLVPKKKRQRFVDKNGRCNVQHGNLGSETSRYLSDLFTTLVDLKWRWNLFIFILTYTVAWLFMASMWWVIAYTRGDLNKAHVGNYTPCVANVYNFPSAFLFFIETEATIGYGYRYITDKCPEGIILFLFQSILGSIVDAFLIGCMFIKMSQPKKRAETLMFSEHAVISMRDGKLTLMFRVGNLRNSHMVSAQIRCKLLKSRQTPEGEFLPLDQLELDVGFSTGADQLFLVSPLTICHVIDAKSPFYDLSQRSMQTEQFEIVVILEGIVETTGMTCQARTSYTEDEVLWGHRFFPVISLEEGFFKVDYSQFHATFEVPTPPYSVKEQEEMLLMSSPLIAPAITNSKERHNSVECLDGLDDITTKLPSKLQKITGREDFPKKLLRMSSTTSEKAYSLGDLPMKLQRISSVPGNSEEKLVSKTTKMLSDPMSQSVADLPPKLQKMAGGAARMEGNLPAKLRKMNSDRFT
T1 sequence (P48542 1-425): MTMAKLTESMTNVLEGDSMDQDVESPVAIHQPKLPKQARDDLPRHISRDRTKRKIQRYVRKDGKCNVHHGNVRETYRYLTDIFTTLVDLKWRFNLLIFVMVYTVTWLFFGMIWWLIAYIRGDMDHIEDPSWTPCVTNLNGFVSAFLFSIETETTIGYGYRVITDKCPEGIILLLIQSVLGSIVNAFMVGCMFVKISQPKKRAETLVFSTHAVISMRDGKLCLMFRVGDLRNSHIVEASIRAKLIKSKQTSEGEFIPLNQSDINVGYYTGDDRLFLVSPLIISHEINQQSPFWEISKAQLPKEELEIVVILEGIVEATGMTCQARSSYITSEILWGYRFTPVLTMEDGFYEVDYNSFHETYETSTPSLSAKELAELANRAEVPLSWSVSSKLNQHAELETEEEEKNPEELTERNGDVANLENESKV
Put plainly: two-electrode voltage clamp (TEVC) in Xenopus oocytes expressing GIRK1/2 wild-type. The class given is cell-based, human GIRK1, mouse GIRK2. The note with it: for Emax: ML297 considered 100%, read-out: EMAX at GIRK1/2, % relative to ML297; for selectivity for GIRK1/2 over GIRK1/4 (in words) / EC50: TEVC; for selectivity for GIRK1/2 over GIRK1/4 (in words): GIRK1/2 versus GIRK1/4; for EC50: Xenopus oocytes, GIRK1/2 wild-type; for potency/efficacy compared to GAT1508 (in words) / activation of GIRK1/2 (in words): concentration-response, FIGS. 34A-34I; for EMAX at GIRK1/2: current normalized to basal current. The arrangement: expressed in transfected cells; host or cells: Xenopus laevis oocytes (cRNA injection). An excerpt: (§1) Molecular biology: For Xenopus oocyte expression, human GIRK1 and human GIRK4 cDNAs were subcloned into pGEMHE. For mammalian expression, human GIRK1 and human GIRK4 cDNAs were subcloned into pcDNA3 and pcDNA3.1/V5-His B, respectively (Invitrogen). Mouse GIRK2 cDNA was subcloned in the dual-function vector, pXoom. Point mutations were introduced using a standard Pfu-based mutagenesis technique according to the QuikChange protocol (Agilent). Mutations were verified by sequencing.
(§2) Xenopus laevis oocyte expression: Plasmid DNAs of GIRK channel subunits were linearized prior to in vitro transcription. Capped RNAs were transcribed using mMESSAGE mMACHINE T7 Transcription Kit (Thermo Fisher Scientific). Xenopus oocytes were surgically extracted, dissociated and defolliculated by collagenase treatment, and microinjected with 50 nl of a water solution containing 1 ng of each GIRK subunit RNA. For TEVC experiments, oocytes were kept 2 days at 17° C. before recording, while for NPo experiments oocytes were incubated for up to 4 days at 17° C.
(§3) Xenopus laevis oocyte expression: All cDNA constructs in the pGEMHE vector were linearized using the NheI restriction enzyme, whereas those in the pXoom vector were linearized using the XhoI restriction enzyme. Linearized cDNAs were in vitro-transcribed using the mMessage mMachine® kit (Ambion) kit. Complementary RNA (cRNA) concentrations were quantified by optical density. Xenopus oocytes were surgically extracted, dissociated, and defolliculated by collagenase treatment and microinjected with 50 nl of the desired cRNAs diluted in RNAase-free water. The use of Xenopus laevis frogs for this study was approved by the Institutional Animal Care and Use Committee (IACUC) at Northeastern University. All constructs used in this study were injected to achieve between 1-2 ng per oocyte depending on the channel. Oocytes were incubated for 2 days at 18° C.
(§4) Electrophysiology of oocytes: Whole-oocyte currents were measured by conventional two-electrode voltage clamp (TEVC) with a GeneClamp 500 amplifier (Axon Instruments). […] Barium-sensitive currents were normalized to average basal current in the vehicle solutions. The HK solution contained the following: 96 mM KCl, 1 mM NaCl, 1 mM MgCl2, 5 mM KOH/HEPES, pH 7.4. The barium solution consisted of HK+10 mM BaCl2. Five to ten oocytes from the same batch (same frog) were recorded for each group, and the experiments were repeated in at least four batches. Data acquisition and analysis were carried out using pClamp9 (Molecular Devices) and OriginPro (Microcal) software.
(In general: Two-electrode voltage clamp holds a large cell at a set potential and records current.)

For a further test, the target named is T2, GIRK1/4 (Homo sapiens, UniProt P48544+P48549).
T2 sequence (P48549 1-501): T1 sequence (P48549 1-501)
T2 sequence (P48544 1-419): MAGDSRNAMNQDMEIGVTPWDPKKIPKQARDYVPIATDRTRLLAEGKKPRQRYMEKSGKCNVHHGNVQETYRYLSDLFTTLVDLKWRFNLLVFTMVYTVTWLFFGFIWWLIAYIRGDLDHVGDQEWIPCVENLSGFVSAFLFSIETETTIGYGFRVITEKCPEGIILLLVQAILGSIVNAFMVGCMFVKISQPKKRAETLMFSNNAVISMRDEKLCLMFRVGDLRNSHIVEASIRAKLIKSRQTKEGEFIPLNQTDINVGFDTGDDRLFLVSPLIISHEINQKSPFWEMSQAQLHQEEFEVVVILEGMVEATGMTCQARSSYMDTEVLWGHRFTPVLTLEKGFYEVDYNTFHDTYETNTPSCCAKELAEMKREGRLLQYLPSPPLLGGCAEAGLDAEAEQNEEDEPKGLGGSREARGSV
The experiment in a line: two-electrode voltage clamp (TEVC) in Xenopus oocytes expressing GIRK1/4 wild-type. The class given is cell-based. The arrangement: expressed in transfected cells; host or cells: Xenopus laevis oocytes (cRNA injection). The note with it: for activation of GIRK1/4 (in words): concentration-response, FIGS. 34A-34I; for Emax: ML297 considered 100%, read-out: EMAX at GIRK1/4, % relative to ML297; for EC50: TEVC, Xenopus oocytes, GIRK1/4 wild-type; for EMAX at GIRK1/4: current normalized to basal current; for modulation of GIRK1/4 channels (in words): Examples 5 and 6, Xenopus oocytes.
From the text: as §1, §2, §3, §4

Test [1] has as its system BLA neurons (GIRK currents). Put plainly: whole-cell patch-clamp in acute brain slices, basolateral amygdala (BLA) neurons. The test is classed as cell-based, rat. The note with it: 100 ms puff of 100 μM, compared to baseline. As to the method:
Electrophysiological recordings from brain slices containing basolateral amygdala (BLA) neurons: Electrophysiology was performed using 150-200 g male Sprague-Dawley rats (Harlan/Envigo, Indianapolis, IN). Rats were group housed in plastic cages in standard housing conditions with ad libitum access to food and water with 12:12 light/dark cycle (lights on at 07:00 h). All experiments were conducted in accordance with the Guide for the Care and Use of Laboratory Animals (Institute for Laboratory Animal Research, The National Academies Press) and the guidelines of the IUPUI Institutional Animal Care and Use Committee. Rats were anesthetized with isoflurane and immediately decapitated. Brains were then rapidly removed, placed in ice-cold oxygenated artificial cerebrospinal fluid solution (ACSF) and coronal slices ([…]) were prepared containing the amygdala. Slices were incubated at 31° C. for 30 min and then returned to room temperature until recording. [ACSF solution in mM: 130 NaCl; 3.5 KCl; 1.1 KH2PO4; 1.3 MgCl2; 2.5 CaCl2; 30 NaHCO3; 10 glucose, 315 mOsm, 7.4 pH]. Cells were identified for recording at 40× magnification using Scientifica Slicescope microscope under DIC illumination (Scientifica, Uckfield, UK). ACSF was warmed to 30° C. and perfused at a rate of 2-3 ml/min during recordings. Compounds were added to ACSF at desired concentrations. Whole-cell patch-clamp recordings were obtained using standard techniques. Borosilicate glass electrodes (WPI, Sarasota, FL) (resistance 3-6 MΩ) were prepared and used for both recording and baclofen application. [Recording internal solution in mM: 140 K-gluconate; 2 KCl; 3 MgCl2; 10 HEPES; 5 Phosphocreatinine; 2 K-ATP; 0.2 Na-GTP, 290 mOsm, 7.4 pH]. In voltage-clamp mode, the cell was adjusted to −50 mV at the beginning of all experiments and 5 min stable baseline was established before treatment. Picospritzer II (Parker Hannifin, Hollis, NH) was utilized for local application of 100 μM GABA-B agonist baclofen in ACSF to activate GIRKs. Baseline and baclofen-induced currents were averaged from three responses per cell and analyzed using ClampFit software (Molecular Devices, San Jose, CA). […] Several control cells were subjected to baclofen at 2 min intervals for 30 min and consistent responses were observed, thus ruling out time-dependent effects.
The inventors employed whole-cell patch-clamp recording in acute brain slices to examine the effect of GAT1508. The inventors utilized brain slices that included the basolateral amygdala (BLA), a limbic structure that has been extensively described to coordinate the acquisition and expression of fear memories. […] Next, the inventors examined the response of BLA neurons to baclofen, a GABAB-receptor agonist that induces GIRK-mediated potassium currents. […]

In general, EC50 refers to the concentration at which the effect is half-maximal. Higher therefore signals a less potent agent. As for `Cc1cc(NC(=O)Nc2ccc(Cl)s2)n(-c2ccccc2)n1` [GAT1501, 1-(5-chlorothiophen-2-yl)-3-(3-methyl-1-phenyl-1H-pyrazol-5-yl)urea], on GIRK1/2, the Emax stood at 96%; the “selectivity for GIRK1/2 over GIRK1/4 (in words)” value (from here on “selectivity”) is “retained some selectivity”; the midpoint of the response, the EC50, lay at 4.05 ± 0.14 µM; the “potency/efficacy compared to GAT1508 (in words)” value is reported as “less potent than GAT1508 for GIRK1/2”. Further, the “EMAX at GIRK1/2” value on GIRK1/2 is on record as 2.797±0.18. Also, the “activation of GIRK1/4 (in words)” value at GIRK1/4 is “did not show activation of GIRK1/4 at concentrations less than 20 μM; also recorded: negligible”.

In the case of `Cc1cc(NC(=O)Nc2cc(Br)cs2)n(-c2ccccc2)n1` [GAT1502, 1-(4-bromothiophen-2-yl)-3-(3-methyl-1-phenyl-1H-pyrazol-5-yl)urea], on GIRK1/2, the Emax worked out at 91%, the EC50 turned out to be 4.41 ± 0.15 µM, the “activation of GIRK1/2 (in words)” value is “much poorer activators” and the “EMAX at GIRK1/2” value is 2.70±0.20. Besides, on GIRK1/4, the Emax came to 104%; the midpoint of the response, the EC50, lay at 3.13 ± 0.24 µM; the “activation of GIRK1/4 (in words)” value is recorded as “much poorer activators”; the “EMAX at GIRK1/4” value was found to be 1.63±0.09.

Turning to `Cc1cc(NC(=O)Nc2cccs2)n(-c2ccccc2)n1` [GAT1506, 1-(3-methyl-1-phenyl-1H-pyrazol-5-yl)-3-(thiophen-2-yl)urea], at GIRK1/2, the Emax was found to be 155%, the “selectivity” value is reported as “lacked selectivity”, it took 17.1 ± 0.28 µM to reach a half-maximal effect (EC50) and the “potency/efficacy compared to GAT1508 (in words)” value was “less potent than GAT1508”. For the same compound, the “EMAX at GIRK1/2” value on GIRK1/2 is 3.9±1.04. On GIRK1/4, the Emax was determined as 157%; the midpoint of the response, the EC50, lay at 7.02 ± 0.24 µM; the “EMAX at GIRK1/4” value amounted to 1.95±0.21.

`Cc1nn(-c2ccccc2)c(NC(=O)Nc2ccc(F)c(F)c2)c1Br` [GAT1528]: the “modulation of GIRK1/2 channels (in words)” value at GIRK1/2 (Examples 5 and 6, Xenopus oocytes) is “no effect on basal activity”. Further, the “modulation of GIRK1/4 channels (in words)” value on GIRK1/4 is reported as “selective for GIRK1/4 inhibition against GIRK1/2 channel activity”.

For `Cc1cc(NC(=O)Nc2cnc(Br)s2)n(-c2ccccc2)n1` [GAT1530, 1-(2-bromothiazol-5-yl)-3-(3-methyl-1-phenyl-1H-pyrazol-5-yl)urea], at GIRK1/2, the “selectivity” value is recorded as “lack of specificity”.

`Cc1cc(NC(=O)N/C=C/c2ccccc2)n(-c2ccccc2)n1` [GAT1537]: the “modulation of GIRK1/4 channels (in words)” value at GIRK1/4 is on record as “little or no effect”.

In the case of `Cc1cc(NC(=O)Nc2sccc2Br)n(-c2ccccc2)n1` [GAT1570, 1-(3-bromothiophen-2-yl)-3-(3-methyl-1-phenyl-1H-pyrazol-5-yl)urea], on GIRK1/2, the “activation of GIRK1/2 (in words)” value is recorded as “much poorer activators; also recorded: negligible”. The “activation of GIRK1/4 (in words)” value at GIRK1/4 is listed as “much poorer activators; also recorded: negligible”.

In the case of `Cc1cc(NC(=O)Nc2ccc(I)s2)n(-c2ccccc2)n1` [GAT1574, 1-(5-iodothiophen-2-yl)-3-(3-methyl-1-phenyl-1H-pyrazol-5-yl)urea], on GIRK1/2, the “activation of GIRK1/2 (in words)” value is “poorer activator than the bromine analog; also recorded: negligible”. Further, the “activation of GIRK1/4 (in words)” value at GIRK1/4 is “poorer activator than the bromine analog; also recorded: negligible”.

Regarding `Cc1cc(NC(=O)Nc2ccc(F)s2)n(-c2ccccc2)n1` [GAT1575, 1-(5-fluorothiophen-2-yl)-3-(3-methyl-1-phenyl-1H-pyrazol-5-yl)urea], on GIRK1/2, the Emax is 210%; the “selectivity” value was “less selective between GIRK1/2 and GIRK1/4 than GAT1508”; the half-maximal effective concentration (EC50) was 9.39 ± 0.12 µM; the “potency/efficacy compared to GAT1508 (in words)” value was “highly efficacious but much less potent than GAT1508”. In addition, on GIRK1/2, the “EMAX at GIRK1/2” value amounted to 4.92±0.49. In addition, on GIRK1/4, the Emax was found to be 192%, the EC50 was determined as 11.2 ± 0.25 µM and the “EMAX at GIRK1/4” value came to 2.16±0.32.

As to `NCC(CC(=O)O)c1ccc(Cl)cc1` (stereo not drawn) [baclofen, reference compound], the “current response of BLA neurons (in words)” value in test [1] is “induced a significant outward current”.
